From ChEMBL document CHEMBL1148502, “Carbonic anhydrase inhibitors: inhibition of the cytosolic human isozyme VII with anions” (Bioorg Med Chem Lett, 2006)
Several values for one entry are separate records, joined by “and”; a condition that tells them apart may be missing. Equal entries are not always repeated.

Key:
Homo sapiens [1] = organism: Homo sapiens; test: Selectivity for human CA7 over human CA1
Homo sapiens [2] = organism: Homo sapiens; test: Selectivity for human CA7 over human CA2
[3] = Selectivity for human CA7 over murine CA13
Carbonic anhydrase 7 = Carbonic anhydrase 7 (Homo sapiens, UniProt P43166)
Sequence of Carbonic anhydrase 7 (P43166 whole entry): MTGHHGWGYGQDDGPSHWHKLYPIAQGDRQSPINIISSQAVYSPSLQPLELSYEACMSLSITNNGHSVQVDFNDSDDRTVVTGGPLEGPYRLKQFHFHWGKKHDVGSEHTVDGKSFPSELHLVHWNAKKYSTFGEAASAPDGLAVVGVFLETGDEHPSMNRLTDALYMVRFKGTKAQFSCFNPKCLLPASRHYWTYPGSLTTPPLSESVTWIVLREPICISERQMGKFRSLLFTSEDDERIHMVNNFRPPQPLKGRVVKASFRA
Description: Inhibition of human recombinant CA7

Structure (SMILES) | Ki (Carbonic anhydrase 7) | further results
OB(O)c1ccccc1 [PHENYLBORONIC ACID] | 8.3 µM | Selectivity ratio (Homo sapiens [1]): 7060; Selectivity ratio (Homo sapiens [2]): 2780; Selectivity ratio [3]: 343
S [HYDROGEN SULFIDE] | 1240 µM | –
O=S(=O)(O)O [SULFURIC ACID] | 1380 µM | –
Br [BROMIDE] | 1060 µM | –
O=C(O)O [BICARBONATE] | 270 µM and 160 µM | –
NS(=O)(=O)O [SULFAMATE] | 9.5 µM | –
O=[N+]([O-])O [NITRIC ACID] | 190 µM | –
F [FLUORIDE ION] | 1240 µM | –
O=NO [NITROUS ACID] | 1780 µM | –
Cl [HYDROCHLORIC ACID] | 1840 µM | –
I [IODIDE] | 250 µM | –
N#CS [THIOCYANIC ACID] | 170 µM | –
N#CO [CYANATE] | 15200 µM | –
O=S(O)O [SULFUROUS ACID] | 7300 µM | –
